Results from ChEMBL document CHEMBL5126604, “Design, Synthesis, and Biological Evaluation of Pyrrole-2-carboxamide Derivatives as Mycobacterial Membrane Protein Large 3 Inhibitors for Treating Drug-Resistant Tuberculosis” (J Med Chem, 2022).

Legend:
[1] = system: Mycobacterium tuberculosis; experiment: microbe, parasite or virus in culture; settings: Mycobacterium tuberculosis, 13946, 168 h
[2] = system: Mycobacterium tuberculosis; experiment: microbe, parasite or virus in culture; settings: Mycobacterium tuberculosis, 14862, 168 h

Compound	MIC [1] [µg/mL]	MIC [2] [µg/mL]
O=C(NC1C2CC3CC(C2)CC1C3)c1cc(-c2ccc(F)nc2F)c[nH]1 (stereo unspecified)	< 0.016	< 0.016
O=C(NC12CC3CC(CC(C3)C1)C2)c1cc(-c2ccc(F)cc2F)c[nH]1	< 0.016	< 0.016
O=C(NC12CC3CC(CC(C3)C1)C2)c1cc(-c2ccc(F)nc2F)c[nH]1	< 0.016	< 0.016
